Experimental data: US10190168B2, “Method for predicting a treatment response to a CRHR1 antagonist and/or a V1B antagonist in a patient with depressive and/or anxiety symptoms” (MAX-PLANCK-GESELLSCHAFT ZUR FÖRDERUNG DER WISSENSCHAFTEN …, priority 2013, dated 2019)

Key:
Cor26 CRH mice = assay: REMS levels (EEG/EMG sleep recording) in CRH-overexpressing Cor26 CRH mice; conditions: 50 mg/kg/d via drinking water
Method: (§1) Experiments were conducted with two different mouse lines of excessive central CRH secretion and their respective control littermates (CL). Mice of the CRH-COE^CNS line are characterised by CRH-overexpression within the whole CNS, whereas mice of the Cor26 CRH line display a CRH-overexpression specific to CRH-ergic neurons of the CNS. Three different CRHR1 antagonists were tested. […] In all cases, animals were left to recover from EEG/EMG-electrode implantation for two weeks, after which two days of baseline recording were initiated. Treatment with CRH-R1 antagonist or respective vehicle control commenced thereafter for five consecutive days. Antagonists were applied through the drinking water at a daily dose of 50 mg/kg body weight. EEG and EMG recordings were manually scored as wake, non-REMS (NREMS), and REMS in four second epochs by an experienced evaluator.

[1] = tested on: control littermates (CL) of Cor26 CRH mice; assay: REMS levels (EEG/EMG sleep recording) in control littermates of the Cor26 CRH line; conditions: 50 mg/kg/d via drinking water
Method: as §1

[2] = tested on: mice overexpressing CRH in the forebrain; conditions: Kimura et al., Mol. Psychiatry 2010; cited from earlier work
CRH-COE^CNS mice = assay: REMS activity (EEG/EMG sleep recording) in CRH-overexpressing CRH-COE^CNS mice; conditions: 50 mg/kg/d via drinking water; for REMS activity: treatment days vs baseline, effect beginning with treatment day two
Method: as §1

[3] = tested on: control littermates (CL) of CRH-COE^CNS mice; assay: REMS activity (EEG/EMG sleep recording) in control littermates of the CRH-COE^CNS line; conditions: 50 mg/kg/d via drinking water
Method: as §1

Row | Compound | REMS levels (Cor26 CRH mice; 50 mg/kg/day) | REMS levels (Cor26 CRH mice; listed as CP-316311, 50 mg/kg/day) | REMS levels, area under the curve (AUC) within the light period (Cor26 CRH mice; baseline vs treatment day three, P=0.006) | REMS levels [1] | REM enhancement [2] | REMS suppression relative to baseline REMS-levels of CL (CRH-COE^CNS mice) | treatment day of strongest suppression of REMS activity (CRH-COE^CNS mice) | REMS activity (CRH-COE^CNS mice; 50 mg/kg/day) | REMS activity (CRH-COE^CNS mice; listed as DMP696, 50 mg/kg/day) | REMS activity [3]
1 | CCC(CC)Oc1cc(C)nc(Oc2c(C)cc(C)cc2C)c1C [CP-316,311] | apparently seemed weak | suppressed | significant decrease | no significant effect | – | – | – | – | – | –
2 | COCC(COC)Nc1nc(C)nc2c(-c3ccc(Cl)cc3Cl)c(C)nn12 [DMP-696] | – | – | – | – | could reverse the REM enhancement | never exceeded baseline REMS-levels of CL | treatment day three | significant decrease in REMS activity | suppressed | only a mild suppression of REMS
